Experiments:
FGFR1 = biological target: T1, FGFR1 (Homo sapiens, UniProt P11362); test: Kinase binding assay (kinase-tagged T7 phage, affinity beads, qPCR), Kd; conditions: read-out: FGFR1 (Kd nM)
T1 construct: made in house; host or cells: E. coli (BL21-derived), T7 phage
Outline: (§1)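 Kd obtained by Levenberg–Marquardt Hill-equation fit (slope −1) to qPCR-measured kinase retained on ligand-coated streptavidin beads.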

FGFR3 (V555M) = biological target: T2, FGFR3 (V555M) (Homo sapiens, UniProt P22607, V555M); test: as above; conditions: V555M mutant; read-out: FGFR3 (V555M) (Kd nM)
T2 construct: made in house; host or cells: E. coli (BL21-derived), T7 phage
T2 sequence (P22607 23-806 V555M): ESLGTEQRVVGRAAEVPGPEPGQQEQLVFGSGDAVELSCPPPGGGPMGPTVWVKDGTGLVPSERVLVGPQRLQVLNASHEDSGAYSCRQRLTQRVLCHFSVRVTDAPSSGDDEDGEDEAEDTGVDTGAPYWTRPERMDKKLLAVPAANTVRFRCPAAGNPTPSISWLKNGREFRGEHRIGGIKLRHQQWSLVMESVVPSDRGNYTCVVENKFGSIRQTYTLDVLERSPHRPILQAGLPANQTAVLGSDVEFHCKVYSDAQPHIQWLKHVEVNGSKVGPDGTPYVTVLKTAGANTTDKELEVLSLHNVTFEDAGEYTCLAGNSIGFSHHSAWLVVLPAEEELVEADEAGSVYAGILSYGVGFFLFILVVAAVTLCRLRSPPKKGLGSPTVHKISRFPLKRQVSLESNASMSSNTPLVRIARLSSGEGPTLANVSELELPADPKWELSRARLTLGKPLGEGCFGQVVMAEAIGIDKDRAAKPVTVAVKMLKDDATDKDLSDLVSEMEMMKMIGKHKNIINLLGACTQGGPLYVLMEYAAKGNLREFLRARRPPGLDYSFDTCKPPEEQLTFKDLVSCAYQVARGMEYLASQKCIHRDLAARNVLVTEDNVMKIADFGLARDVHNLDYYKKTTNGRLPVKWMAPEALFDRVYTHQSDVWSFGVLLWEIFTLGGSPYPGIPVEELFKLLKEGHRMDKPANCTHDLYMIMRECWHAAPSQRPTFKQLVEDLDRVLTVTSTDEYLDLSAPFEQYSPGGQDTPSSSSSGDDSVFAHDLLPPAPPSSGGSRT
Outline: as §1

FGFR2 = biological target: T3, FGFR2 (Homo sapiens, UniProt P21802); test: as above; conditions: read-out: FGFR2 (Kd nM)
T3 construct: made in house; host or cells: E. coli (BL21-derived), T7 phage
T3 sequence (P21802 22-821): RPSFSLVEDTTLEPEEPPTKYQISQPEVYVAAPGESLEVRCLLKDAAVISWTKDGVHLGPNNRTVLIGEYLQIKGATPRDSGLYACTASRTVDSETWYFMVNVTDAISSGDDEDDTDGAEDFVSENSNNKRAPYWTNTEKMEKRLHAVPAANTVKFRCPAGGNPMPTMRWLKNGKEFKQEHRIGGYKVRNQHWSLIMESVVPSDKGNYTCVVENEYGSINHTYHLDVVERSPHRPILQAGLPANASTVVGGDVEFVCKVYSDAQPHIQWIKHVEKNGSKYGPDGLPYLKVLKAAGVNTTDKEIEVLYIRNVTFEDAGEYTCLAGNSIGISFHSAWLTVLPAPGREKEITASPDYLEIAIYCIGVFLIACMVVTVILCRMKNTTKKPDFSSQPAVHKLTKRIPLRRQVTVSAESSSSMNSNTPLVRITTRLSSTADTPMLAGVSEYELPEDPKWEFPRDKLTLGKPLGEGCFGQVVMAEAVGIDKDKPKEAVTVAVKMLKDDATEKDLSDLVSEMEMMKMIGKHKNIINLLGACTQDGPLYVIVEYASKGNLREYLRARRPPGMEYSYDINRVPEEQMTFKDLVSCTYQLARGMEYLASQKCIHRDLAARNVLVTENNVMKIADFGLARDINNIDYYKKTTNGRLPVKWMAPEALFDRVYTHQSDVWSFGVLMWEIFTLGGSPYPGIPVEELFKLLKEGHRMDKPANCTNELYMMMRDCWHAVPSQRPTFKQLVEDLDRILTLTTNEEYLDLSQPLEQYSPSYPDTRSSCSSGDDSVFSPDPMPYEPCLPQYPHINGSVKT
Outline: as §1

FGFR3 = biological target: T4, FGFR3 (Homo sapiens, UniProt P22607); test: as above; conditions: read-out: FGFR3 (Kd nM)
T4 construct: made in house; host or cells: E. coli (BL21-derived), T7 phage
T4 sequence (P22607 23-806): as the sequence (P22607 23-806 V555M) above, with M533V counted along it
Outline: as §1

FGFR4 = biological target: T5, FGFR4 (Homo sapiens, UniProt P22455); test: as above; conditions: read-out: FGFR4 (Kd nM)
T5 construct: made in house; host or cells: E. coli (BL21-derived), T7 phage
T5 sequence (P22455 22-802): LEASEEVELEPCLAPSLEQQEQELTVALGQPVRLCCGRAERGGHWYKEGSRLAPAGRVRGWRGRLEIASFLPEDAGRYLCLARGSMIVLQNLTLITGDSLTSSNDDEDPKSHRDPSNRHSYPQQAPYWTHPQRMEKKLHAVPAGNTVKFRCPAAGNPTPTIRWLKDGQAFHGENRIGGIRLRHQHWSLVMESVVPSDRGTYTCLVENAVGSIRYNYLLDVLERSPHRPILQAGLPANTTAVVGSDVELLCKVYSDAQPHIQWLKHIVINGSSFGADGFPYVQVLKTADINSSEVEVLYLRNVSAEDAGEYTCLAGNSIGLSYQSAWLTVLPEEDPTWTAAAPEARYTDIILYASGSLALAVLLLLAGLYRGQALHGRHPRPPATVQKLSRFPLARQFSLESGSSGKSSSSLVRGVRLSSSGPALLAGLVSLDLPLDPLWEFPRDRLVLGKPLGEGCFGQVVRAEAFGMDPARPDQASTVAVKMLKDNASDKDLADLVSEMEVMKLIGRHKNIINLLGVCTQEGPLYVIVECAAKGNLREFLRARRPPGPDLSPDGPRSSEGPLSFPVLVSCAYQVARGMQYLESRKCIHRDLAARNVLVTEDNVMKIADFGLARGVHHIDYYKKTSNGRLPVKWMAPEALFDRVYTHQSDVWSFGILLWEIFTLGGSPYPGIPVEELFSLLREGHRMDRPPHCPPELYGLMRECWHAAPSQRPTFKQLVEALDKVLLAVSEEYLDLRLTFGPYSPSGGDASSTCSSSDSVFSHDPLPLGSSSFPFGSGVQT
Outline: as §1

[1] = tested on: HuH7 cell line (FGF19 amplification); test: Cancer cell line cell viability assay (Cell Titer-Glo), 120 hr; assay type: cell-based; conditions: Homo sapiens, Huh-7
Outline: (§2)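 Luminescent ATP read-out (Cell Titer-Glo 2.0) after compound exposure, normalised to DMSO-only wells. Dosing: 9 concentrations, 4-fold steps, top 3 μM, triplicates. IC50 derived by log(inhibitor) vs. response 4-parameter fit.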

[2] = tested on: KG-1 cell line (FGFR 1-fusion); test: Cancer cell line cell viability assay (Cell Titer-Glo), 72 hr; assay type: cell-based; conditions: Homo sapiens, KG-1, KG-1 cell line (FGFR1-fusion)
Outline: as §2

[3] = tested on: KATO-III cell line (FGFR2 amplification); test: as above; assay type: cell-based; conditions: Homo sapiens, KATO III
Outline: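 Cells seeded at 5,000-20,000/well, incubated overnight, then treated with a 9-dose, 4-fold dilution series from 3 μM in triplicate at 37° C, 5% CO2. Viability read by Cell Titer-Glo 2.0 luminescence as percent of DMSO control; IC50 from 4-parameter variable-slope sigmoidal fit.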

[4] = tested on: RT112/84 cell line (FGFR3-fusion); test: as above; assay type: cell-based; conditions: Homo sapiens, RT112/84, RT112/84 cell line (FGFR3-fusion)
Outline: as §2

T1 sequence (P11362 22-822): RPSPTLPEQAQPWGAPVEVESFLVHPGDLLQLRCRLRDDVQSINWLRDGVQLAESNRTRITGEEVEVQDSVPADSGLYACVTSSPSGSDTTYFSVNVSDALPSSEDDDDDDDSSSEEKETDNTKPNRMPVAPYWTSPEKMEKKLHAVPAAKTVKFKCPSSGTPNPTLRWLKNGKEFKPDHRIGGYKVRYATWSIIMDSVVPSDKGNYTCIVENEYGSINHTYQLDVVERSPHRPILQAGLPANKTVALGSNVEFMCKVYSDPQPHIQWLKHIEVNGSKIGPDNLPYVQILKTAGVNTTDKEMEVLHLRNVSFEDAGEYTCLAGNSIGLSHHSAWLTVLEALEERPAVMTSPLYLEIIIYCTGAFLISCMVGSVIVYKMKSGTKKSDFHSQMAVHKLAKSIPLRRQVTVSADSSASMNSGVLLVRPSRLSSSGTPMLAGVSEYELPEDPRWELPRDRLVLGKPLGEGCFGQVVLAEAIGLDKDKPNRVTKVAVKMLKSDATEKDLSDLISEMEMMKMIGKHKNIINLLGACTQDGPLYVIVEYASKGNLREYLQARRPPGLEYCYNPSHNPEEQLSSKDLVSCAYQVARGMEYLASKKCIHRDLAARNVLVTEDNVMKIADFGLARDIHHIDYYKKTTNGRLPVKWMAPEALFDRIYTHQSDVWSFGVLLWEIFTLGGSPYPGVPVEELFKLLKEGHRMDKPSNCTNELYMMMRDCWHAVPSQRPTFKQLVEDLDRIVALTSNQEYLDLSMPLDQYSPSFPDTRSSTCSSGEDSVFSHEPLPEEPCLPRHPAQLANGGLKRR

| Kd (FGFR1) [nM] | Kd (FGFR3 (V555M)) [nM] | Kd (FGFR2) [nM] | Kd (FGFR3) [nM] | Kd (FGFR4) [nM] | IC50 [1] [µM] | IC50 [2] [µM] | IC50 [3] [µM] | IC50 [4] [µM] | Structure (SMILES) |
| --- | --- | --- | --- | --- | --- | --- | --- | --- | --- |
| 1 to 50 | 1 to 50 | 1 to 50 | 1 to 50 | 1 to 50 | 0.0001 to 0.05 | 0.05 to 0.2 | 0.05 to 0.2 | 0.0001 to 0.05 | COc1cc2[nH]nc(-c3cnc(N4CC(C)(N5CCCC5)C4)c(C#N)c3)c2cc1O[C@H](C)c1c(Cl)cncc1Cl [Example 15, 5-[5-[(1R)-1-(3,5-dichloro-4-pyridyl)ethoxy]-6-methoxy-1H-indazol-3-yl]-2-(3-methyl-3-pyrrolidin-1-yl-azetidin-1-yl)pyridine-3-carbonitrile] |
| 1 to 50 | 1 to 50 | 1 to 50 | 1 to 50 | 1 to 50 | 0.05 to 0.2 | > 1 | 0.2 to 1 | 0.05 to 0.2 | C[C@@H](Oc1ccc2[nH]nc(-c3cnc(N4CC(C)(N5CCP(C)(=O)CC5)C4)c(C#N)c3)c2c1)c1c(Cl)cncc1Cl [Example 328, (R)-5-(5-(1-(3,5-dichloropyridin-4-yl)ethoxy)-1H-indazol-3-yl)-2-(3-methyl-3-(4-methyl-4-oxido-1,4-azaphosphinan-1-yl)azetidin-1-yl)nicotinonitrile] |
| 1 to 50 | 1 to 50 | 1 to 50 | 1 to 50 | 1 to 50 | 0.0001 to 0.05 | 0.2 to 1 | 0.05 to 0.2 | 0.0001 to 0.05 | C[C@H](O)CNC1(C)CN(c2ncc(-c3n[nH]c4ccc(O[C@H](C)c5c(Cl)cncc5Cl)cc34)cc2C#N)C1 [Example 57, 5-(5-((R)-1-(3,5-dichloropyridin-4-yl)ethoxy)-1H-indazol-3-yl)-2-(3-(((S)-2-hydroxypropyl)amino)-3-methylazetidin-1-yl)nicotinonitrile] |
| 1 to 50 | 1 to 50 | 50 to 300 | 1 to 50 | 1 to 50 | 0.0001 to 0.05 | 0.2 to 1 | 0.2 to 1 | 0.05 to 0.2 | C[C@@H](Oc1ccc2[nH]nc(-c3cnc(N4CC(C)(NC(=O)CN(C)C)C4)c(C#N)c3)c2c1)c1c(Cl)cncc1Cl [Example 87, (R)-N-(1-(3-cyano-5-(5-(1-(3,5-dichloropyridin-4-yl)ethoxy)-1H-indazol-3-yl)pyridin-2-yl)-3-methylazetidin-3-yl)-2-(dimethylamino)acetamide] |
| 1 to 50 | 1 to 50 | 1 to 50 | 1 to 50 | 1 to 50 | 0.0001 to 0.05 | 0.05 to 0.2 | 0.05 to 0.2 | 0.0001 to 0.05 | COCCNC1(C)CN(c2ncc(-c3n[nH]c4cc(OC)c(O[C@H](C)c5c(Cl)cncc5Cl)cc34)cc2C#N)C1 [Example 37, 5-[5-[(1R)-1-(3,5-dichloro-4-pyridyl)ethoxy]-6-methoxy-1H-indazol-3-yl]-2-[3-(2-methoxyethylamino)-3-methyl-azetidin-1-yl]pyridine-3-carbonitrile] |
| 1 to 50 | 1 to 50 | 1 to 50 | 1 to 50 | 1 to 50 | 0.0001 to 0.05 | 0.05 to 0.2 | 0.05 to 0.2 | 0.0001 to 0.05 | COc1cc2[nH]nc(-c3cnc(N4CC(C)(N(C)C)C4)c(C#N)c3)c2cc1O[C@H](C)c1c(Cl)cncc1Cl [Example 10, 5-[5-[(1R)-1-(3,5-dichloro-4-pyridyl)ethoxy]-6-methoxy-1H-indazol-3-yl]-2-[3-(dimethylamino)-3-methyl-azetidin-1-yl]pyridine-3-carbonitrile] |
| 1 to 50 | 1 to 50 | 1 to 50 | 1 to 50 | 1 to 50 | 0.0001 to 0.05 | 0.2 to 1 | 0.2 to 1 | 0.05 to 0.2 | COC1(C)CN(C2(C)CN(c3ncc(-c4n[nH]c5ccc(O[C@H](C)c6c(Cl)cncc6Cl)cc45)cc3C#N)C2)C1 [Example 102, (R)-5-(5-(1-(3,5-dichloropyridin-4-yl)ethoxy)-1H-indazol-3-yl)-2-(3-methoxy-3,3′-dimethyl-[1,3′-biazetidin]-1′-yl)nicotinonitrile] |
| 1 to 50 | 1 to 50 | 1 to 50 | 1 to 50 | 1 to 50 | 0.0001 to 0.05 | 0.0001 to 0.05 | 0.0001 to 0.05 | 0.0001 to 0.05 | COc1cc2[nH]nc(-c3cnc(N4CC(C)(CN(C)C)C4)c(C#N)c3)c2cc1O[C@H](C)c1c(Cl)cncc1Cl [Example 49, (R)-5-(5-(1-(3,5-dichloropyridin-4-yl)ethoxy)-6-methoxy-1H-indazol-3-yl)-2-(3-((dimethylamino)methyl)-3-methylazetidin-1-yl)nicotinonitrile] |
| 50 to 300 | 1 to 50 | 50 to 300 | 1 to 50 | 1 to 50 | 0.0001 to 0.05 | 0.2 to 1 | 0.05 to 0.2 | 0.0001 to 0.05 | C[C@@H](Oc1ccc2[nH]nc(-c3cnc(N4CC(C)(NC5CS(=O)(=O)C5)C4)c(C#N)c3)c2c1)c1c(Cl)cncc1Cl [Example 7, (R)-5-(5-(1-(3,5-dichloropyridin-4-yl)ethoxy)-1H-indazol-3-yl)-2-(3-((1,1-dioxidothietan-3-yl)amino)-3-methylazetidin-1-yl)nicotinonitrile] |
| 1 to 50 | 1 to 50 | 50 to 300 | 1 to 50 | 1 to 50 | 0.2 to 1 | 0.05 to 0.2 | 0.2 to 1 | 0.05 to 0.2 | CC(C)NCC1(C)CN(c2ncc(-c3n[nH]c4ccc(O[C@H](C)c5c(Cl)cncc5Cl)cc34)cc2C#N)C1 [Example 133, 5-[5-[(1R)-1-(3,5-dichloro-4-pyridyl)ethoxy]-1H-indazol-3-yl]-2-[3-[(isopropylamino)meth-yl]-3-methyl-azetidin-1-yl]pyridine-3-carbonitrile] |
| 1 to 50 | 1 to 50 | 50 to 300 | 1 to 50 | 1 to 50 | 0.0001 to 0.05 | 0.2 to 1 | 0.05 to 0.2 | 0.05 to 0.2 | COCCNC1(C)CN(c2ncc(-c3n[nH]c4ccc(O[C@H](C)c5c(Cl)cncc5Cl)cc34)cc2C#N)C1 [Example 88, (R)-5-(5-(1-(3,5-dichloropyridin-4-yl)ethoxy)-1H-indazol-3-yl)-2-(3-((2-methoxyethyl)amino)-3-methylazetidin-1-yl)nicotinonitrile] |
| 1 to 50 | 1 to 50 | 1 to 50 | 1 to 50 | 1 to 50 | 0.0001 to 0.05 | 0.2 to 1 | 0.2 to 1 | 0.05 to 0.2 | CC(C)NC1(C)CN(c2ncc(-c3n[nH]c4ccc(O[C@H](C)c5c(Cl)cncc5Cl)cc34)cc2C#N)C1 [Example 48, (R)-5-(5-(1-(3,5-dichloropyridin-4-yl)ethoxy)-1H-indazol-3-yl)-2-(3-(isopropylamino)-3-methylazetidin-1-yl)nicotinonitrile] |
| 1 to 50 | 1 to 50 | 1 to 50 | 1 to 50 | 1 to 50 | 0.0001 to 0.05 | 0.05 to 0.2 | 0.05 to 0.2 | 0.0001 to 0.05 | CCCNC1(C)CN(c2ncc(-c3n[nH]c4cc(OC)c(O[C@H](C)c5c(Cl)cncc5Cl)cc34)cc2C#N)C1 [Example 146, 5-[5-[(1R)-1-(3,5-dichloro-4-pyridyl)ethoxy]-6-methoxy-1H-indazol-3-yl]-2-[3-methyl-3-(propylamino)azetidin-1-yl]pyridine-3-carbonitrile] |
| 1 to 50 | 1 to 50 | 1 to 50 | 1 to 50 | 1 to 50 | 0.0001 to 0.05 | 0.05 to 0.2 | 0.05 to 0.2 | 0.0001 to 0.05 | C[C@@H](Oc1ccc2[nH]nc(-c3cnc(N4CC(C)(N5CCOCC5)C4)nc3)c2c1)c1c(Cl)cncc1Cl [Example 43, (R)-4-(1-(5-(5-(1-(3,5-dichloropyridin-4-yl)ethoxy)-1H-indazol-3-yl)pyrimidin-2-yl)-3-methylazetidin-3-yl)morpholine] |

| Structure (SMILES) | Kd (FGFR1) [nM] | Kd (FGFR3 (V555M)) [nM] | Kd (FGFR2) [nM] | Kd (FGFR3) [nM] | Kd (FGFR4) [nM] | IC50 [1] [µM] | IC50 [2] [µM] | IC50 [3] [µM] | IC50 [4] [µM] |
| --- | --- | --- | --- | --- | --- | --- | --- | --- | --- |
| COc1cc2[nH]nc(-c3cnc(N4CC(C)(N5CC6CC(C5)O6)C4)c(C#N)c3)c2cc1O[C@H](C)c1c(Cl)cncc1Cl [Example 337, 2-(3-(6-oxa-3-aza-bicyclo[3.1.1]hep-tan-3-yl)-3-methylazetidin-1-yl)-5-(5-((R)-1-(3,5-dichloropyridin-4-yl)ethoxy)-6-methoxy-1H-indazol-3-yl)nicotinonitrile] | 1 to 50 | 1 to 50 | 1 to 50 | 1 to 50 | 1 to 50 | 0.0001 to 0.05 | 0.05 to 0.2 | 0.05 to 0.2 | 0.0001 to 0.05 |

Source: patent US20250368666A1, “INDAZOLE COMPOUNDS” (TYRA BIOSCIENCES, INC., priority 2022, published 2025)
